What all share (assay type): cell-based, mouse
For assay [1], the system named is hWDR5Dox;mWdr5KO organoids. Briefly: RT-qPCR of cardiomyocyte markers cTnT and aMHC after late (T48h) induction of hWDR5. The note with it: Dox added at T48h. As to the method: FIGS. 4A-4K. Late induction of hWDR5 skews ESC differentiation from retinal neuroectoderm to cardiac mesoderm. (FIGS. 4A, 4B, 4C and 4D) RT-qPCR analysis of pluripotent marker (Oct4, FIG. 4A), neuroepithelial marker (N-Cadherin, FIG. 4B), retinal ectoderm marker (Rax/Rx, FIG. 4C) and cardiomyocyte mesoderm marker (cTnT, FIG. 4D) during time-course differentiation of WT, early induction (T12h), late induction (T36h or T48h) of exogenous hWDR5 in hWDR5^Dox;mWdr5^KO (i.e., mWdr5 KO) EBs. […] (FIG. 4H) Critical time points for exogenous hWDR5 linked to cardiomyocyte differentiation were determined by cTnT RT-qPCR. […] Induction of early mesoderm marker (T/Brachyury) and cTnT was determined by RT-qPCR.
Trizol reagent (ThermoFisher Scientific) and RNeasy mini kit (Qiagen) were utilized for RNA isolation from ESCs or EBs. […] Data were automatically analyzed using Bio-Rad CFX manager software using Δ/ΔCt method.
In various aspects of the disclosure, quantitative reverse transcription PCR (RT-qPCR) is used to analyze results obtained in the examples. […] Data is automatically analyzed using Bio-Rad CFX manager software using Δ/ΔCt method.
Third, immunohistochemistry (IHC) was used to assay for cardiomyocyte-specific proteins in T48h conditions. […] Neither cTnT nor Myh1e were detected in WT and T12h conditions. […]
Background: Real-time PCR tracks product formation cycle by cycle.

Assay [2] has as its system hWDR5Dox;mWdr5KO (mWdr5 KO) organoids. Put plainly: Rx-GFP (+) retinal lineage cell differentiation scored by flow cytometry (day 5). The note with it: Dox from T0h. On the procedure: (§1) FIGS. 2A-2H. WDR5 regulates retinal progenitor cell fate transition in a dose- and time-dependent manner. (FIG. 2A) Tight control of exogenous HA-hWDR5 during early time window of ESC differentiation. hWDR5^Dox;mWdr5^KO (i.e., mWdr5 KO) ESCs were maintained in Dox (+) ESC media and Dox was removed upon ESC differentiation (day 0 or EB day 0 (EB0)). At different time points (0 h, 24 h, 36 h, 48 h, 60 h), cells were collected and subjected to probe HA-hWDR5 expression (a-HA). Tubulin: loading control. (FIG. 2B) Dose-dependent induction of exogenous hWDR5 and H3K4me during ESC differentiation. mWdr5 KO ESCs were maintained in Dox (+) ESC media and Dox was removed upon ESC differentiation (day 0). At 12 h post differentiation, different doses of Dox were added to mWdr5 KO EBs. At embryoid body (EB) day 4 (EB4), EBs were collected and extracted histones were subjected to western blotting. Total H3 was used as loading control. […] Cell proliferation was determined at EB day 4 (FIG. 2C) and Rx-GFP positive retinal progenitor cells were scored by flow cytometry at day 5 (FIG. 2D). […] Cell proliferation was recorded at EB day 4 (FIG. 2E) and Rx-GFP positive retinal progenitor cells at EB day 5 were scored by flow cytometry (FIG. 2F). […] (FIG. 2H) Wdr5 regulates RPC differentiation in a time-dependent manner as determined by Rx/Rax mRNA RT-qPCR. […]

Assay [3] has the same test system. Put plainly: Cell proliferation of differentiating mWdr5 KO organoids in retinal culture conditions (EB day 4). The settings on record: Dox added at T0h, organoid day 4. As to the method:
as §1

As for `C[C@H]1c2cccc(O)c2C(=O)C2=C(O)[C@]3(O)C(=O)C(C(N)=O)=C(O)[C@@H](N(C)C)[C@@H]3[C@@H](O)[C@@H]21` [Dox, doxycycline], the “Dox concentrations that induced cTnT and aMHC expression” value in assay [1] was “up to 125 ng/ml”. In assay [2], the “Dox dose at which proportion of Rx-GFP (+) RLCs reached a plateau” value stood at 500 ng/mL and the “Dox dose at which proportion of Rx-GFP (+) RLCs was comparable to WT controls” value was 250 ng/mL. Also, the “Dox concentration at which rescue of the proliferation defect reached a plateau” value in assay [3] was 250 ng/mL.

The record behind these values is patent US12054742B2, “Compositions and methods to derive mesodermal lineage cells and mixed tissue organoids from embryonic stem cells” (THE REGENTS OF THE UNIVERSITY OF MICHIGAN, priority 2018, dated 2024).
